Measurements taken from patent US5250537A, “5,6,7,8,9,10-hexahydro-7 ,10-iminocyclohept[b]indole,-6,7,8,9,10-hexahydro-7,11-imino-5H-cyclooct[ b]indole and substituted derivatives” (Scios Nova Inc., priority 1992, dated 1993).
Like-named read-outs stand apart in the source and are kept apart here.

How the values were obtained:
[1] = Motor impairment (rotorod); type: in vivo, mice (CF-1); details: for dose at which impairment of rotorod performance was noted: oral
Method: (§1) The potency of selected compounds to produce catalepsy and motor impairment was evaluated according to the following methods. Groups of male CF-1 mice (Harlan Sprague-Dawley, Inc.), weighing 25-30 g, were food-deprived for 3-5 hours prior to oral administration of the compound of interest. These agents were suspended in 10% DMSO/10% Tween/80% distilled water vehicle and administered in a volume of 0.01 mL/g body weight. Fifty-five minutes after oral (po) administration, the presence or absence of catalepsy was determined by placing the forepaws on a rod (6 mm diameter) mounted 39 mm above the floor of the test chamber. Pressure was applied to immobilize the subject with its back in a concave position. Following removal of pressure, the latency to recover normal posture, as defined by the return of at least one forepaw to the floor of the chamber, or the placement of one hindlimb on the bar, was recorded. Mice were tested three times and considered cataleptic if recovery was not apparent within 30 seconds during any of the three trials. Following determination of catalepsy and at 60 minutes post administration of compound, motor impairment was determined by placing mice on a rotating knurled bar (Rotorod, Ugo Basile model 7600; 6-7 revolutions per minute; 3.8 cm diameter). Mice were tested up to three times; mice failing to remain on the bar for 60 sec during all three tests were considered impaired.

[2] = In vivo Cataleptic Activity; set-up: species or system mice (CF-1); details: for catalepsy (in words): any dose tested, oral
Method: as §1

[3] = tested on: dopamine receptors; experiment: In Vivo Dopamine Antagonist Activity (inhibition of apomorphine-induced climbing); set-up: species or system mice (CF-1); details: oral administration; apomorphine 3 mg/kg sc
[4] = biological target: sigma receptor ([3H]DTG site); experiment: In Vitro Sigma Receptor Binding, [3H]DTG; details: guinea pig brain; 45 minutes at 25° C.
Method: (§2) For both assays frozen guinea pig brains (PelFreez Biologicals, Rogers, AK) were thawed and homogenized in 10 volumes (w/v) of ice cold 0.32M sucrose using 10 strokes of a motor-drivenglass-fitted teflon pestle adjusted to 600 rpm. The homogenate was centrifuged (4° C.) at 900× g for 10 minutes and the resultant supernatant collected and centrifuged at 22,000×g for 20 minutes. The pellet obtained from the centrifugation was resuspended in 10 volumes of 50 mM Tris HCl (pH 7.4, 25° C.) and incubated for 30 minutes at 37° C. Following the preincubation, the homogenate was centrifuted at 22,000×g for 20 minutes and the final pellet was resuspended in buffer to a protein concentration of 0.5-1.0 mg/mL for use in the assay.
(§3) Binding reactions were initiated by the addition of tissue (800 μL) to tubes containing assay buffer, the radioligand (final concentration 1-3 nM) and the compound of interest. Haloperidol (10 μM) and (+)-3-PPP (10 μM) were used to determine the levels of […] [^3 H]DTG and [^3 H](+)PPP binding, respectively. Final assay volume was 1 mL. Reactions were allowed to proceed for 45 minutes at 25° C. and terminated by rapid filtration over Whatman GF/B filters which were washed 3 times with 5 mL of cold buffer. Radioactivity trapped on the filters was determined using routine methods. […] All assays were performed using triplicate determinations. For comparison purposes, IC50 values are reported rather than Ki values.

[5] = biological target: T1, sigma receptor ([3H](+)-3-PPP site) (Cavia porcellus, UniProt Q60492); experiment: In Vitro Sigma Receptor Binding, [3H](+)-3-PPP; set-up: species or system guinea pig; details: 45 minutes at 25° C.
T1 construct: frozen guinea pig brains; tissue PelFreez Biologicals, Rogers, AK; host or cells: guinea pig brain membranes
Method: as §2, §3

[6] = biological target: T2, serotonin 5-HT2 receptors (Rattus norvegicus, UniProt P14842); experiment: In Vitro Serotonin (5-HT2) Receptor Binding, [3H]ketanserin; details: for Ki: rat cortical membranes, 1 nM [3H]ketanserin
T2 construct: Rat cortical synaptosomal membranes were prepared on the day of assay; from tissue; host or cells: rat frontal cortex synaptosomal membranes
Method: The potency of compounds to inhibit the specific binding of [^3 H]ketanserin (84.2 Ci/mM) to serotonin 5-HT2 receptors was determined as detailed previously [J. E. Leysen, C. J. E. Niemegers, J. M. Van Neuten and P. M. Laduron, Mol. Pharmacol., 21, 301-314 (1982)]. Rat cortical synaptosomal membranes were prepared on the day of assay. Animals were sacrified by decapitation, the frontal cortex was removed and homogenized in 10 volumes (w/v) of ice-cold 0.32M sucrose using a motor driven teflon pestle fitted to a glass tube. The synaptosomal pellet was suspended in 50 mM Tris HCl (pH 7.6 at 25° C.) to a concentration of 7.5 mg original wet weight/mL. For the binding reaction, 400 μL of this tissue suspension was added to polypropylene tubes containing 50 mM Tris HCl and [^3 H]ketanserin (final concentration of 1 nM) in a final assay volume of 0.5 mL. Following a 15 minute incubation at 37° C., the binding reaction was terminated by rapid vacuum filtration over Whatman GF/B filters (presoaked in 0.1% PEI) followed by 3×4 mL washes with ice cold 50 mM Tris HCl. Nonspecific binding was assessed in the presence of 10 μM methysergide. All incubations were performed in triplicate. IC50 values were determined using log logit analysis.

[7] = biological target: T3, dopamine (D-2) receptors (Rattus norvegicus, UniProt P61169); experiment: In Vitro Dopamine (D-2) Receptor Binding, [3H]sulpiride; details: read-out: Dopamine D-2 [3H]sulpiride Ki
T3 construct: the corpus striatum was dissected and homogenized; from tissue; host or cells: rat corpus striatum membranes
Method: On the day of assay, rats were sacrificed by decapitation, the corpus striatum was dissected and homogenized in 20 volumes of ice-cold 50 mM Tris HCl (pH 7.5, 25° C.). The homogenate was centrifuged (4° C.) at 48,000×g for 10 minutes and the resulting pellet was resuspended in 20 volumes of fresh buffer and recentrifuged. […] A portion of the suspension (800 μL) was added in triplicate to tubes containing 3 nM [^3 H]sulpiride and the test compound. The final assay volume was 1 mL; haloperidol (10 μM) was used to determine non-specific binding. Following a 60 minute incubation at 25° C., the reactions were terminated by rapid filtration over Whatman GF/B filters which had been pretreated in a solution of 0.3% (w/v) of aqueous polyethylenimine. Filters were washed three times using 5 mL of ice-cold buffer and processed using standard procedures to determine radioactivity. IC50 values were obtained from concentration-response curves in which a number of concentrations of test compound were examined. Ki values were determined using the Cheng-Prusoff equation.

[8] = tested on: dopamine D-2 receptors; details: Snyder and Largent 1988; cited from earlier work
[9] = tested on: sigma receptors; details: Snyder and Largent 1988; cited from earlier work
[10] = guinea pig brain, read-out: Sigma [3H](+)-3-PPP binding IC50
[11] = read-out: Serotonin 5-HT2 [3H]ketanserin, value @ 1 μM
[12] = rat corpus striatum, 3 nM [3H]sulpiride
[13] = read-out: Serotonin 5-HT2 [3H]ketanserin, % @ 1 μM

T1 sequence (Q60492 whole entry): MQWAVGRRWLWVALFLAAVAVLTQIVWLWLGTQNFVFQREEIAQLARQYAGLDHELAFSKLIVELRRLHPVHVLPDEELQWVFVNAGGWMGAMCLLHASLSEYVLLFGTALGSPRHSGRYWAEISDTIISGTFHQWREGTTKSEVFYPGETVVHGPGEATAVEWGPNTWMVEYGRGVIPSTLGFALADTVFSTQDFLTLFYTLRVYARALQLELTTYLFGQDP
T2 sequence (P14842 whole entry): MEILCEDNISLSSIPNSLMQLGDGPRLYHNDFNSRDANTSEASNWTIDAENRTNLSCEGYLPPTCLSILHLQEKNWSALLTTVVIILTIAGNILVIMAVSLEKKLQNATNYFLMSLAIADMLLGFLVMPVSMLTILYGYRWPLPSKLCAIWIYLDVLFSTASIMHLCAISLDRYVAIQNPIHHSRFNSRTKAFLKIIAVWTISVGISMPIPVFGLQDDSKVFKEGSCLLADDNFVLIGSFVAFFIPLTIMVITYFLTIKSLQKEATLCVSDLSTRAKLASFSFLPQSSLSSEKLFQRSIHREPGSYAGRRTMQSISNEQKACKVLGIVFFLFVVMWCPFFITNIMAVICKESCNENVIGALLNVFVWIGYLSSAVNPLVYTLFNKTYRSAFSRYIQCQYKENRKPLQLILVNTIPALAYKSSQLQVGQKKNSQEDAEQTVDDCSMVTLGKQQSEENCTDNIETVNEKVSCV
T3 sequence (P61169 whole entry): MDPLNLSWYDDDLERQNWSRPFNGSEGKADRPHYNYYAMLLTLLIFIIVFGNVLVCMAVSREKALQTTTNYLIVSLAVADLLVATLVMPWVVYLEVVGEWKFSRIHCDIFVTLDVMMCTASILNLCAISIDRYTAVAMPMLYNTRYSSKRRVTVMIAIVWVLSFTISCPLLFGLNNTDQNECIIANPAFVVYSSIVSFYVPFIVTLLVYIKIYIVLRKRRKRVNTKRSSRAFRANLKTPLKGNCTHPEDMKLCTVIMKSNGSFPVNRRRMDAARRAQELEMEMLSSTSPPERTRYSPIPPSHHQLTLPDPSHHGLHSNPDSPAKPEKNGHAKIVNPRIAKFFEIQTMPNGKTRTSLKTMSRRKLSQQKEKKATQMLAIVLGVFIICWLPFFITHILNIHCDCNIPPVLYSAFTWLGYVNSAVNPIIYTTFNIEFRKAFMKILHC

Structure (SMILES) | IC50 [4] [nM] | IC50 [5, 10] [nM] | Ki [7, 12] [nM] | Ki [6] [nM] | other results
O=C(CCCN1C2CCC1c1c([nH]c3ccc(F)cc13)C2)c1ccc(F)cc1 (stereo not drawn) [Example 4 F H (CH2)3 CO 4-FPh 2, 2-fluoro-11-[4-(4-fluorophenyl)-4-oxobutyl]-5,6,7,8,9,10-hexahydro-7,10-iminocyclohept[b]indole] | – | – | – | – | Failing Rotorod Number ([1]; 300 mg/kg po, n=4): 2; Failing Rotorod Number ([1]; 500 mg/kg po, n=3): 1; dose at which impairment of rotorod performance was noted [1]: 300 to 500 mg/kg; Cataleptic Number ([2]; 300 mg/kg po, n=4): 0; Cataleptic Number ([2]; 500 mg/kg po, n=3): 0; catalepsy (in words) [2]: catalepsy was not observed
O=C(CCCCN1C2CCC1c1c([nH]c3ccccc13)C2)c1ccc(F)cc1 (stereo not drawn) [Example 1 H H (CH2)4 CO 4-FPh 2, 11-[5-(4-fluorophenyl)-5-oxopentyl]-5,6,7,8,9,10-hexahydro-7,10-iminocyclohept[b]indole] | – | – | – | – | Failing Rotorod Number ([1]; 300 mg/kg po, n=4): 1; Failing Rotorod Number ([1]; 500 mg/kg po, n=4): 4; dose at which impairment of rotorod performance was noted [1]: 300 to 500 mg/kg; Cataleptic Number ([2]; 300 mg/kg po, n=4): 0; Cataleptic Number ([2]; 500 mg/kg po, n=4): 0; catalepsy (in words) [2]: catalepsy was not observed; potency (ED50) to inhibit apomorphine-induced climbing [3]: 15.7 mg/kg
OCCCN1C2CCC1c1c([nH]c3ccc(F)cc13)C2 (stereo not drawn) [4 F H (CH2)3 OH 2] | 317 ± 49 | 1380 ± 188 | 37300 | – | inhibition at 1 µM [6, 11]: 5.6%
O=C(COc1ccc(Cl)c(Cl)c1)N1C2CCC1c1c([nH]c3ccccc13)C2 (stereo not drawn) [7 H H COCH2 O-3,4-Cl2 Ph 2] | > 10000 | > 10000 | 64500 | – | inhibition at 1 µM [6, 13]: 24.7%
O=C(CCCN1C2CCCC1c1c([nH]c3ccccc13)C2)c1ccc(F)cc1 (stereo not drawn) [11 H H (CH2)3 CO 4-FPh 3] | 43 | – | 38 | 0.46 | IC50 ([5]; Sigma [3H](+)-3-PPP binding IC50, guinea pig brain): 89 nM
Fc1ccc2[nH]c3c(c2c1)C1CCC(C3)N1Cc1ccccc1 (stereo not drawn) [4 F H CH2 Ph 2] | 86 ± 14 | 908 ± 222 | 3740 | – | inhibition at 1 µM [6, 13]: 3.3%
CN(C)CCCN1c2ccccc2Sc2ccc(Cl)cc21 [chlorpromazine] | – | – | – | – | binding to dopamine D-2 receptors (in words) [8]: bind to both dopamine D-2 and sigma receptors; binding to sigma receptors (in words) [9]: bind to both dopamine D-2 and sigma receptors
O=C(CCCN1C2CCCC1c1c([nH]c3ccc(F)cc13)C2)c1ccc(F)cc1 (stereo not drawn) [12 F H (CH2)3 CO 4-FPh 3] | 23 | 103 | – | 2.5 | Ki [7]: 200 nM
O=C1c2ccccc2C(=O)N1CCCN1C2CCC1c1c([nH]c3ccc(F)cc13)C2 (stereo not drawn) [6 F H (CH2)3 2-phthalimido 2] | 836 | 3330 ± 1810 | 12300 ± 1700 | – | inhibition at 1 µM [6, 11]: 4.9%
c1ccc(OCCCN2C3CCC2c2c([nH]c4ccccc24)C3)cc1 (stereo not drawn) [1 H H (CH2)3 OPh 2] | 132 ± 16 | 262 ± 19 | 1270 ± 260 | 22.9 | –
Fc1ccc(CCCCN2C3CCCC2c2c([nH]c4ccc(F)cc24)C3)cc1 (stereo not drawn) [11 F H (CH2)4 4-FPh 3] | 61 | 150 | 1470 | 205 | –
Fc1ccc(CCCCN2C3CCCC2c2c([nH]c4ccccc24)C3)cc1 (stereo not drawn) [11 H H (CH2)4 4-FPh 3] | 64 | 279 | 915 | 23.6 | –
O=C(CCCN1C2CCC1c1c(n(-c3ccccc3)c3ccccc13)C2)c1ccc(F)cc1 (stereo not drawn) [2 H Ph (CH2)3 CO 4-FPh 2] | 528 | 510 | 840 | 814 | –
Fc1ccc2[nH]c3c(c2c1)C1CCCC(C3)N1CCCCc1ccccc1 (stereo not drawn) [12 F H (CH2)4 Ph 3] | 42 | 117 | 1870 | 172 | –
c1ccc(CCCCN2C3CCC2c2c(n(Cc4ccccc4)c4ccccc24)C3)cc1 (stereo not drawn) [5 H Bn (CH2)4 Ph 2] | 267 ± 87 | 396 ± 92 | 1830 | 506 | –
c1ccc(CCCCCN2C3CCC2c2c([nH]c4ccccc24)C3)cc1 (stereo not drawn) [1 H H (CH2)5 Ph 2] | 107 ± 59 | 348 ± 70 | 680 ± 230 | 42.5 | –
CC(C)n1c2c(c3ccccc31)C1CCC(C2)N1CCCCc1ccccc1 (stereo not drawn) [5 H 2-Pr (CH2)4 Ph 2] | 231 | 705 ± 20 | 2640 ± 270 | – | inhibition at 1 µM [6, 13]: 46%
Fc1ccc(C(=CCCN2C3CCCC2c2c([nH]c4ccc(F)cc24)C3)c2ccc(F)cc2)cc1 (stereo not drawn) [12 F H (CH2)2 CHC (4-FPh)2 3] | 1910 | 10000 | 3730 | 625 | –
